Legend:
[1] = tested on: nitrification in sandy loam soil; assay: Leaching experiment in soil column with simulated drip irrigation; settings: AS 90 mg N; NI/N (NH4) 0.8%; 9 days at 20° C., then about 43 mm precipitation; lower value = better inhibition
Description: (§1) In the examples a standardized sandy loam soil with coarse and very light texture was used.
100 g of air dried soil was filled in a 150 mL free draining column made of glass. Soil was moistened with deionized water to 50% of its water holding capacity. Then, the filled column was incubated for 24 h at 20° C. A solution of ammonium sulfate and optionally the nitrogen inhibitor in deionized water was deposited on the soil by means of a pipette to simulate drip irrigation. The amount of ammonium sulfate corresponds to 90 mg of nitrogen (N). The columns were then incubated for 9 days at 20° C. Then, deionized water was dripped to the soil corresponding to a precipitation of about 43 mm. Thereafter, the water was removed from the soil by applying a negative pressure until the moisture in the soil was 50% of its water holding capacity. The removed water (percolate) was collected and analyzed with regard to the total quantity of inorganic nitrogen (NH4 and NO3) as described for example 1. Since NH4 is more strongly bound to the soil compared to NO3 a lower nitrogen value indicates a better inhibition of nitrification.

[2] = tested on: nitrification in sandy loam soil (soil microbial biomass); assay: Soil incubation with simulated drip irrigation: NH4 recovery and nitrification inhibition; settings: for % NH4 recovery of applied NH4: 20° C., ammonium sulfate; for % nitrification inhibition: calculated according to equation 1
Description: as §1
For each test, three 500 ml plastic bottles were filled with 100 g of air dried soil each. Soil was moistened with deionized water to 50% of its water holding capacity. Then, the soil was incubated for two weeks at 20° C. to activate the microbial biomass. Ammonium sulfate was dissolved in deionized water in an amount corresponding to a nitrogen concentration of 10 g/L and supplemented by the desired amount of nitrogen inhibitor in an amount given in table 1. To each bottle 1 ml of the test solution was added by dripping the test solution with a pipette to the soil to simulate drop irrigation. Bottles were loosely capped to avoid contamination by dirt but to allow air exchange. The bottles were incubated at 20° C. for 0 to 42 days.
For determining the nitrogen content in the soil after incubation, to each bottle 300 mL of a 1% by weight solution of potassium sulfate in deionized water was added and the bottle was shaken for 2 h in a horizontal shaker at 150 rpm. Then the whole content of the bottle was filtered through a paper filter (MN 807 of Macherey-Nagel) and the filtrate was analyzed photometrically at 550 nm with respect to ammonium and nitrate by means of an auto analyzer AA11 of Merck.
Inhibition of nitrification was calculated by the following equation 1 (Bohland equation, DD 123771):
N (NO3) 1=Concentration of nitrogen contributed by NO3 without NI at the end of incubation
N (NO3) […]=Concentration of nitrogen contributed by NO3 with NI at the end of incubation
N (NO3) […]=Concentration of nitrogen contributed by NO3 at the beginning of incubation
The Examples were carried out in two separate series 1 and 2. All results are averages of 3 replications.

[3] = second series, DAT7, NI/N (NH4) 0.8%
[4] = second series, DAT14, NI/N (NH4) 0.8%
[5] = second series, DAT28, NI/N (NH4) 0.8%
[6] = second series, DAT42, NI/N (NH4) 0.8%
[7] = first series, DAT14, NI/N (NH4) 0.8%
[8] = first series, DAT28, NI/N (NH4) 0.8%
[9] = first series, DAT42, NI/N (NH4) 0.8%
[10] = second series, DAT7, NI/N (NH4) 0.4%
[11] = second series, DAT14, NI/N (NH4) 0.4%
[12] = second series, DAT28, NI/N (NH4) 0.4%
[13] = second series, DAT42, NI/N (NH4) 0.4%
[14] = first series, DAT14, NI/N (NH4) 10%
[15] = first series, DAT28, NI/N (NH4) 10%
[16] = first series, DAT42, NI/N (NH4) 10%

## Cc1c[nH]nc1C.O=P(O)(O)O [DMPP, 3,4-dimethyl pyrazole phosphate]
[1]
  Total N: total quantity of inorganic nitrogen (NH4 and NO3) in percolate: 6.3 mg
[2]; [3]
  % NH4 recovery of applied NH4: 75%
  % nitrification inhibition: 70%
[2]; [4]
  % NH4 recovery of applied NH4: 71%
  % nitrification inhibition: 76%
[2]; [5]
  % NH4 recovery of applied NH4: 64%
  % nitrification inhibition: 66%
[2]; [6]
  % NH4 recovery of applied NH4: 66%
  % nitrification inhibition: 61%

## 2-(3,4-dimethyl-1H-pyrazol-1-yl)succinic acid and 2-(4,5-dimethyl-1H-pyrazol-1-yl)succinic acid [DMPSA]
[1]
  Total N: total quantity of inorganic nitrogen (NH4 and NO3) in percolate: 6.0 mg
[2]; conclusion from tables 1 and 2
  inhibition of nitrification in drip irrigation compared to DCD and Nitrapyrin: longer and stronger inhibition of nitrification
[2]; [7]
  % NH4 recovery of applied NH4: 82%
  % nitrification inhibition: 74%
[2]; [8]
  % NH4 recovery of applied NH4: 48%
  % nitrification inhibition: 59%
[2]; [9]
  % NH4 recovery of applied NH4: 27%
  % nitrification inhibition: 34%
[2]; half amount of DMPSA gives comparable nitrification inhibition
  effectiveness relative to DMPP: almost twice effective as DMPP
[2]; [10]
  % NH4 recovery of applied NH4: 82%
  % nitrification inhibition: 76%
[2]; [11]
  % NH4 recovery of applied NH4: 73%
  % nitrification inhibition: 75%
[2]; [12]
  % NH4 recovery of applied NH4: 61%
  % nitrification inhibition: 66%
[2]; [13]
  % NH4 recovery of applied NH4: 63%
  % nitrification inhibition: 56%

## Clc1cccc(C(Cl)(Cl)Cl)n1 [Nitrapyrin, 2-chloro-6-(trichloromethyl)pyridine]
[1]
  Total N: total quantity of inorganic nitrogen (NH4 and NO3) in percolate: 7.1 mg
[2]; [7]
  % NH4 recovery of applied NH4: 31%
  % nitrification inhibition: 33%
[2]; [8]
  % NH4 recovery of applied NH4: 3%
  % nitrification inhibition: 4%
[2]; [9]
  % NH4 recovery of applied NH4: 0%
  % nitrification inhibition: −2%

## N#CN=C(N)N [DCD, dicyandiamide]
[2]; [14]
  % NH4 recovery of applied NH4: 63%
  % nitrification inhibition: 59%
[2]; [15]
  % NH4 recovery of applied NH4: 13%
  % nitrification inhibition: 15%
[2]; [16]
  % NH4 recovery of applied NH4: 0%
  % nitrification inhibition: 3%

— US20220142161A1, “METHOD OF IMPROVING THE GROWTH AND/OR THE YIELD OF PLANTS GROWN ON AGRICULTURALLY OR HORTICULTURALLY UTILIZED SUBSTRATES BY APPLYING A NITRICATION INHIBITOR ADDED TO THE IRRIGATION SYSTEM” (BASF SE, priority 2019, published 2022)
